Test system: IL-6
Assay: Anti-inflammation efficacy in THP-1 in vitro assay: IL-6 in supernatant of PMA-differentiated, LPS-stimulated THP-1 monocytes (BD Elisa kit)
Type: cell-based
Conditions: Table 1, LPS 1 μg/ml, 24 hours incubation, concentration of active(s) as given per example, lower = higher anti-inflammatory potential
Method: The following procedure was used to test the anti-inflammation efficacy of the various actives alone as well as in combination. In the examples, HR means hexyl resorcinol, DHA means docosahexaenoic acid. • (i) 5×10^5 THP-1 monocytes were placed into 24-well plates, with 100 nM […] in the culture media to differentiate the cells. • (ii) After 72 hours differentiation, treatments as follows were applied to the cells. […] (2) LPS-1 μg/ml; (3) Dex-50 nM; (4) DHA-200 μM; (5) DHA-100 μM; (6) DHA-20 μM; (7) HR-50 μM; (8) HR-25 μM; (9) HR-100 μM; […] (11) DHA-100 μM+HR-50 μM; (12) DHA-100 μM+HR-25 μM; (13) DHA-20 μM+HR-100 μM (14) DHA-20 μM+HR-10 μM. • (iii) After 24 hours incubation the supernatants were collected. • (iv) Then IL-6 concentration was tested in the supernatant by BD Elisa kit. The lower the percentage, the higher the anti-inflammatory potential. […] Further information about the experiment nos 12 to 24 is as follows: • Example 12: […] Combination of 50 μM DHA and 12.5 μM of HR. • Example 23: […] Combination of 50 μM DHA and 12.5 μM of ZnCl2. • Example 31: […] Combination of 12.5 μM DHA and 3.125 μM of ZnCl2. Experiments were carried out, according to the procedure described earlier, at various concentrations of DHA along with certain other actives outside the invention viz. BOP (benzoyl peroxide) and SDS (sodium dodecyl sulphate). These actives have been disclosed as additional ingredients in EP0138480 A1. The data below is expressed in % IL-6 inhibition rate in Table-3 below. • Example 33, 34, 35, 36: […] Combination of 50 μM DHA and 12.5 μM of BPO. • Example 43: […] Combination of 12.5 μM DHA and 3.125 μM of BPO. • Example 45, 46, 47, 48: […] Combination of 50 μM DHA and 12.5 μM of SDS. • Example 51: […] Combination of 12.5 μM DHA and 3.125 μM of SDS.

SMILES	concentration of IL-6 as a % of that obtained for LPS (% of LPS)
CC/C=C\C/C=C\C/C=C\C/C=C\C/C=C\C/C=C\CCC(=O)O [Example 2, docosahexaenoic acid]	14.7%
CC/C=C\C/C=C\C/C=C\C/C=C\C/C=C\C/C=C\CCC(=O)O [Example 3, docosahexaenoic acid]	58.5%
CCCCCCc1ccc(O)cc1O [Example 4, hexyl resorcinol]	41.1%
CCCCCCc1ccc(O)cc1O [Example 5, hexyl resorcinol]	54.5%
CCCCCCc1ccc(O)cc1O [Example 6, hexyl resorcinol]	41.1%
CCCCCCc1ccc(O)cc1O [Example 7, hexyl resorcinol]	63.1%

Same assay, conditions: Table 2, LPS 1 μg/mL, DHA, HR, ZnCl2 alone and combined, concentration per example

SMILES	% of LPS (IL-6)
CC/C=C\C/C=C\C/C=C\C/C=C\C/C=C\C/C=C\CCC(=O)O [Example 13, docosahexaenoic acid]	9.9%
CC/C=C\C/C=C\C/C=C\C/C=C\C/C=C\C/C=C\CCC(=O)O [Example 14, docosahexaenoic acid]	29.0%
CC/C=C\C/C=C\C/C=C\C/C=C\C/C=C\C/C=C\CCC(=O)O [Example 15, docosahexaenoic acid]	48.8%
CC/C=C\C/C=C\C/C=C\C/C=C\C/C=C\C/C=C\CCC(=O)O [Example 16, docosahexaenoic acid]	63.1%
CCCCCCc1ccc(O)cc1O [Example 17, hexyl resorcinol]	43.0%
CCCCCCc1ccc(O)cc1O [Example 18, hexyl resorcinol]	55.4%
CCCCCCc1ccc(O)cc1O [Example 19, hexyl resorcinol]	60.3%
CCCCCCc1ccc(O)cc1O [Example 20, hexyl resorcinol]	66.4%
[Cl-].[Cl-].[Zn+2] [Example 25, Zinc chloride]	93.4%
[Cl-].[Cl-].[Zn+2] [Example 26, Zinc chloride]	96.3%
[Cl-].[Cl-].[Zn+2] [Example 27, Zinc chloride]	97.7%
[Cl-].[Cl-].[Zn+2] [Example 28, Zinc chloride]	91.6%

Same assay, conditions: Table 3, LPS 1 μg/mL, DHA, BPO, SDS alone and combined, concentration per example

SMILES	% of LPS (IL-6)
CC/C=C\C/C=C\C/C=C\C/C=C\C/C=C\C/C=C\CCC(=O)O [Example 33, docosahexaenoic acid]	10.7%
CC/C=C\C/C=C\C/C=C\C/C=C\C/C=C\C/C=C\CCC(=O)O [Example 34, docosahexaenoic acid]	36.0%
CC/C=C\C/C=C\C/C=C\C/C=C\C/C=C\C/C=C\CCC(=O)O [Example 35, docosahexaenoic acid]	56.8%
CC/C=C\C/C=C\C/C=C\C/C=C\C/C=C\C/C=C\CCC(=O)O [Example 36, docosahexaenoic acid]	72.0%
O=C(OOC(=O)c1ccccc1)c1ccccc1 [Example 37, benzoyl peroxide]	103.4%
O=C(OOC(=O)c1ccccc1)c1ccccc1 [Example 38, benzoyl peroxide]	100.6%
O=C(OOC(=O)c1ccccc1)c1ccccc1 [Example 39, benzoyl peroxide]	102.7%
O=C(OOC(=O)c1ccccc1)c1ccccc1 [Example 40, benzoyl peroxide]	95.1%

Same assay, conditions: Table 3, LPS 1 μg/mL, DHA, BPO, SDS alone and combined, concentration per example, sulphate

SMILES	% of LPS (IL-6)
CCCCCCCCCCCCOS(=O)(=O)[O-].[Na+] [Example 45, sodium dodecyl sulphate]	84.6%
CCCCCCCCCCCCOS(=O)(=O)[O-].[Na+] [Example 46, sodium dodecyl sulphate]	86.1%
CCCCCCCCCCCCOS(=O)(=O)[O-].[Na+] [Example 47, sodium dodecyl sulphate]	81.3%
CCCCCCCCCCCCOS(=O)(=O)[O-].[Na+] [Example 48, sodium dodecyl sulphate]	80.5%
